We go through one molecule from paper PMC2151567 (The Journal of General Physiology, 2006).

pKd: −log10 of the molar value.

In the assay the target is mouse BK channel (mSlo) (Mus musculus, UniProt Q08460). It is filed as cell-based.
Chain of mouse BK channel (mSlo) (Q08460 whole entry): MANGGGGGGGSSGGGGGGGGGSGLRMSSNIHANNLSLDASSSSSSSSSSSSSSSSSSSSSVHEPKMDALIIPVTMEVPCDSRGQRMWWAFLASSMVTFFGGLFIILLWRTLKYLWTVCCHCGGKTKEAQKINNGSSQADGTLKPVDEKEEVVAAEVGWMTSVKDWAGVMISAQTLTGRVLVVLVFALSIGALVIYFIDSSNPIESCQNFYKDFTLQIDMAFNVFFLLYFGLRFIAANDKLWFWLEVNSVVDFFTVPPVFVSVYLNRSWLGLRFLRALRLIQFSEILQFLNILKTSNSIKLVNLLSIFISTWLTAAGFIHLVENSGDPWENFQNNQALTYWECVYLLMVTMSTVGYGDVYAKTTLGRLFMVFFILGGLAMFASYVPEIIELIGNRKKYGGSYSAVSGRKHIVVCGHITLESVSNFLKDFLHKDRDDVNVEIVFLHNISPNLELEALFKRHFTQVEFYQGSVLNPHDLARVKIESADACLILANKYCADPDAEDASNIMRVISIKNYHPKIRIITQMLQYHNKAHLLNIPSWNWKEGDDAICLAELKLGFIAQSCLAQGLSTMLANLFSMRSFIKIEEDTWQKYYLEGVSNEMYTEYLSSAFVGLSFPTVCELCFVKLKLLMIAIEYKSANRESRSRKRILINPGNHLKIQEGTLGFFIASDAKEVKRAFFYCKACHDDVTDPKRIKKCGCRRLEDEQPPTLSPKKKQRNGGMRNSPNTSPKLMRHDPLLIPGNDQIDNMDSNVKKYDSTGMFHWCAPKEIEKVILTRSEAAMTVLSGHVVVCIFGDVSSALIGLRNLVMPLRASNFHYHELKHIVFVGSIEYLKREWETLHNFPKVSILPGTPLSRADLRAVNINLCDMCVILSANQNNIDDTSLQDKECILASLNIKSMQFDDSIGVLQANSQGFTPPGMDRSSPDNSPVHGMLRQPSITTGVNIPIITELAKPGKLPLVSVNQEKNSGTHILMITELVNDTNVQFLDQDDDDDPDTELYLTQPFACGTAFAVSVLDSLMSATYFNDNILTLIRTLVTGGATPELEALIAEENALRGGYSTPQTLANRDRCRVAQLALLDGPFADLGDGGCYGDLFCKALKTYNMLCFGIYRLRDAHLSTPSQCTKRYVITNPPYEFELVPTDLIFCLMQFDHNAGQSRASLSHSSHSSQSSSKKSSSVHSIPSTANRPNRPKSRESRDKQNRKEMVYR

Take `CCCC[N+](CCCC)(CCCC)CCCC` [TBA, tetrabutylammonium]: the pKd is 3.20.
